Earlier results in patent US12285483B2 (priority 2020, dated 2025).

Details: pure solanesol, room temperature

## solanesol
  solubility in water: insoluble in water
